Reference: PubChem BioAssay (NCI)
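Cultured in 96-well plates, cells were exposed to test compound for 48 hours across five concentrations. GI50 is the concentration that inhibits growth by half. TGI is the concentration that stops growth completely.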

How the values were obtained:
Assay in all cases: growth of human tumour cells (NCI), 48 h
A549 NSCLC = tested on: A549 NSCLC
ACHN renal = tested on: ACHN renal
CAKI-1 renal = tested on: CAKI-1 renal
HOP-62 NSCLC = tested on: HOP-62 NSCLC
K-562 leukemia = tested on: K-562 leukemia
NCI/ADR-RES ovarian = tested on: NCI/ADR-RES ovarian
OVCAR-5 ovarian = tested on: OVCAR-5 ovarian
SK-MEL-28 melanoma = tested on: SK-MEL-28 melanoma
SK-MEL-5 melanoma = tested on: SK-MEL-5 melanoma
SNB-19 CNS = tested on: SNB-19 CNS

Compound	TGI (A549 NSCLC) [µM]	TGI (ACHN renal) [µM]	TGI (CAKI-1 renal) [µM]	TGI (HOP-62 NSCLC) [µM]	TGI (K-562 leukemia) [µM]	TGI (NCI/ADR-RES ovarian) [µM]	TGI (OVCAR-5 ovarian) [µM]	TGI (SK-MEL-28 melanoma) [µM]	TGI (SK-MEL-5 melanoma) [µM]	TGI (SNB-19 CNS) [µM]	GI50 (A549 NSCLC) [µM]	GI50 (CAKI-1 renal) [µM]	GI50 (HOP-62 NSCLC) [µM]	GI50 (K-562 leukemia) [µM]	GI50 (NCI/ADR-RES ovarian) [µM]	GI50 (OVCAR-5 ovarian) [µM]	GI50 (SK-MEL-28 melanoma) [µM]	GI50 (SK-MEL-5 melanoma) [µM]	GI50 (SNB-19 CNS) [µM]	GI50 (ACHN renal) [µM]
Cc1nc2sc3cccc(Cl)c3n2c(=O)c1N=Nc1ccc(Cl)cc1	> 100	> 100	> 100	> 100	> 100	> 100	> 100	> 100	> 100	> 100	–	–	–	–	–	–	–	–	–	–
CCN(CC)CCNc1ccc2ncn3c4ccc(O)cc4c(=O)c1c23	7	2.89	2.08	11.6	34.4	16.1	17.4	21.8	10.4	19.2	–	–	–	–	–	–	–	–	–	–
CCOC(=O)c1c2c(n(-c3ccc(C)cc3)c1C)-c1ccccc1C(=O)C2(C(=O)OCC)C(=O)OCC	> 100	> 100	> 100	> 100	> 59.4	> 85.3	> 100	> 85.5	50.4	> 100	–	–	–	–	–	–	–	–	–	–
O=C(CSCC(=O)N/N=C/c1cccc(O)c1)N/N=C/c1cccc(O)c1	> 100	> 100	> 100	> 100	> 100	> 100	> 100	> 100	> 100	> 100	–	–	–	–	–	–	–	–	–	–
COC(=O)c1cc2c(cc1Cl)Sc1nnc(Nc3ccccc3)n1S2(=O)=O	26.9	4.16	7.23	5.52	> 42	27.4	21.4	10.5	21.2	7.98	–	–	–	–	–	–	–	–	–	–
O=S(=O)(/N=C(\NO)Nc1ccc(Cl)cc1)c1cc(C(F)(F)F)cc(C(F)(F)F)c1	34.5	31.3	32.2	36.9	90.4	58.1	30.1	39	32.8	31.5	–	–	–	–	–	–	–	–	–	–
C=CCNC(=O)C(C)C1CCC2(C)C=CC(=O)C(C)=C2C1O (configuration not stated)	> 100	–	> 100	> 100	> 100	> 100	> 100	> 100	> 100	> 100	–	–	–	–	–	–	–	–	–	–
O=[N+]([O-])c1ccc(/C=N/Nc2nc3ccccc3[nH]2)o1	30.4	–	28.7	35.4	32.1	> 100	49.8	23.8	14.3	> 100	–	–	–	–	–	–	–	–	–	–
CN1C(=O)CC(=O)N1/C(=C/c1ccccc1)c1ccccc1	> 100	> 100	62.5	> 100	> 100	> 100	> 100	> 100	> 100	> 100	–	–	–	–	–	–	–	–	–	–
O=C1c2cc(O)c(O)cc2O[C@H](c2ccc(O)c(O)c2)[C@H]1O	> 100	> 100	> 100	> 100	> 100	> 100	> 100	> 100	> 100	> 100	–	–	–	–	–	–	–	–	–	–
Oc1ccc(C(=C(Br)c2ccccc2)c2ccc(O)cc2)cc1	19.4	21.7	30.8	22.2	9.07	12.6	31.2	24	12.5	17.1	–	–	–	–	–	–	–	–	–	–
CC(SC(=S)N1CCOCC1)C(=O)Nc1nnc(-c2ccc(Cl)cc2)o1 (configuration not stated)	> 100	> 100	–	> 100	–	> 100	> 100	> 100	> 100	> 100	–	–	–	–	–	–	–	–	–	–
C=C(C#N)C(=O)OCC(CC)CC.C=C(C#N)C(=O)OCC(CC)CC.CS(C)=O.CS(C)=O.Nc1c(N=Nc2ccc(-c3ccc(N=Nc4cc(S(=O)(=O)[O-])c5ccccc5c4N)cc3)cc2)cc(S(=O)(=O)[O-])c2ccccc12.[Pt+2]	> 100	–	53.7	> 100	> 100	91.7	> 100	43	> 77.4	> 100	> 86.8	20.4	> 82.8	32.6	34	> 78.4	21.7	34.1	> 100	–
Cc1ccc(S(=O)(=O)OC2CC(C(C)(C)C)CCC2c2ccccc2)cc1 (configuration not stated)	> 100	> 100	> 100	> 100	> 100	> 100	> 100	> 100	> 100	> 100	–	–	–	–	–	–	–	–	–	–
COc1ccc(OC)c2sc(N3C(=O)/C(=C/c4cccc(Oc5ccccc5)c4)N=C3c3ccccc3)nc12	> 100	> 100	> 100	> 100	> 100	> 100	> 100	> 100	> 100	> 100	–	–	–	–	–	–	–	–	–	–
COc1ccc2nc3c(c(N)c2c1)C1CCC3C1(C)C (configuration not stated)	> 100	> 100	> 100	47.9	> 100	> 100	> 100	> 100	25.7	> 100	–	–	–	–	–	–	–	–	–	–
O=C1c2cc3c(cc2-c2c1c1ccc(Cl)cc1c(=O)n2C[C@H](O)CO)OCO3	0.72	0.111	0.192	1.51	> 100	1.12	1.15	1.28	0.114	–	0.0568	< 0.01	0.022	0.0457	0.0322	0.119	0.2	0.0322	–	0.0199
Cc1ccc(S(=O)(=O)N(CC(O)COc2ccccc2)c2c(F)cccc2F)cc1 (configuration not stated)	40.1	40.1	33.8	42.7	> 100	43.1	> 100	31	27.2	> 100	–	–	–	–	–	–	–	–	–	–
CSc1nncc(-c2cc3c(c(SC)n2)CCCC3)n1	> 100	> 100	> 100	> 100	> 100	> 100	> 100	> 100	> 100	> 100	–	–	–	–	–	–	–	–	–	–
O=c1[nH]c2[nH]c(=S)[nH]c(=S)c2[nH]1	> 100	> 100	> 100	> 100	> 100	> 100	> 100	> 100	> 100	> 100	–	–	–	–	–	–	–	–	–	–
Cc1cccc2sc(NC(=O)NS(=O)(=O)n3cnc4ccccc43)nc12	> 100	> 100	> 100	> 100	–	> 100	89.4	> 100	56.3	> 100	–	–	–	–	–	–	–	–	–	–
O=C1C(Cl)N(c2ccccc2Cl)C1c1c[nH]c2ccccc12 (configuration not stated)	> 100	–	–	> 100	> 100	–	–	> 100	> 100	> 100	–	–	–	–	–	–	–	–	–	–
